ChEMBL document CHEMBL1795337, “Sulfonamides incorporating boroxazolidone moieties are potent inhibitors of the transmembrane, tumor-associated carbonic anhydrase isoforms IX and XII” (Bioorg Med Chem Lett, 2011)

Target: Carbonic anhydrase 9 (Homo sapiens, UniProt Q16790)
Description: Inhibition of human recombinant catalytic domain of carbonic anhydrase 9 preincubated for 15 mins by stopped-flow CO2 hydration assay

| SMILES | Ki [nM] |
| --- | --- |
| CCB(CC)OC(=O)[C@@H](N)CCCCNC(=S)Nc1ccc(S(N)(=O)=O)cc1 | 9.3 |
| CCB(CC)OC(=O)[C@@H](N)CCCCNC(=S)Nc1cccc(S(N)(=O)=O)c1 | 9.5 |
| CCB(CC)OC(=O)[C@@H](N)CCCCNC(=S)NCc1ccc(S(N)(=O)=O)cc1 | 9.5 |
| CCB(CC)OC(=O)[C@@H](N)CCCCNC(=S)NCCc1ccc(S(N)(=O)=O)cc1 | 9.6 |
| CCB(CC)OC(=O)[C@@H](N)CCCCNC(=S)Nc1ccc(S(N)(=O)=O)cc1Cl | 91 |
| CCB(CC)OC(=O)[C@@H](N)CCCCNC(=S)Nc1ccc(S(N)(=O)=O)cc1F | 89 |
| CCB(CC)OC(=O)[C@@H](N)CCCCNC(=S)Nc1ccc(S(N)(=O)=O)cc1Br | 92 |
| CCB(CC)OC(=O)[C@@H](N)CCCCNC(=S)Nc1ccc(S(=O)(=O)NCc2ccc(S(N)(=O)=O)cc2)cc1 | 7.7 |
| CCB(CC)OC(=O)[C@@H](N)CCCCNC(=S)Nc1ccc(S(=O)(=O)NCCc2ccc(S(N)(=O)=O)cc2)cc1 | 9 |
| CCB(CC)OC(=O)[C@@H](N)CCCCNC(=S)Nc1ccc(S(=O)(=O)Nc2nnc(S(N)(=O)=O)s2)cc1 | 8.6 |
